In paper PMC4752462 (PLoS ONE, 2016):
Several values for one entry are separate records, joined by “and”; a condition that tells them apart may be missing. Equal values may be shown once.

Assays:
human recombinant CYP3A4 = target: T1, human recombinant CYP3A4 (Homo sapiens, UniProt P08684); experiment: CYP3A4 inhibition, Vivid CYP450 blue screening kit with baculosomes; type: biochemical; conditions: for CYP3A4 activity (Fig 5 data): control = 100
T1 construct: purchased Life Technologies P2858; host or cells: baculosomes (baculovirus-infected insect cell microsomes)
Protocol: CYP3A4 inhibition assay was carried out by using Vivid® CYP450 Screening Kit from Life Technologies as recommended by the manufacturer (# P2858, Carlsbad, CA). This assay allows rapid measurement of interactions between drugs of interest and CYP enzymes based on their capability to inhibit the production of a fluorescent signal in reactions using CYP BACULOSOMES® Plus Reagents and specific Vivid® Substrates. Briefly, the assay was conducted in a 96-well assay plate. […] The final concentrations of 2.5, 5, 7.5, 10, 25, 50, 75, and 100 μM were achieved by diluting the stocks in 1X Vivid® CYP reaction buffer. […] For ethanol only experiment, 2.5, 5, […], 20, 30, and 50 mM final concentrations were used. The final concentration of acetonitrile in each reaction was 0.01% in 100 μl final reaction volume. The fluorescence was immediately measured using a microplate reader (Cytation™ 5 Cell Imaging Multi-Mode Reader, BioTek, VT) at the 415/460 nm excitation and emission wavelengths.
The concentrations of all the drugs were quantified using Ab Sciex Analyst® software. Microsomal kinetic data were analyzed using Michaelis-Menten and exponential decay equations. CYP3A4 inhibition data were evaluated by fitting the values to dose-response inhibition and calculated IC50 values were reported. All graphs were plotted and two-tailed t-tests were performed wherever appropriate using GraphPad Prism 5.01 (GraphPad, San Diego, CA). Significant differences between more than two groups analyzed with one-way ANOVA followed by Dunnett’s multiple comparison tests using IBM SPSS […] version 20. A p value <0.05 was considered significant compared to respective controls. The original data and/or statistical analyses for Michaelis-Menten Kinetics, drug metabolism and half-life determination, inhibition studies, and ligand docking are provided in the supporting information (S1 file).

CYP3A = test system: CYP3A; design: method as in PMID 21348537; conditions: read-out: IC50 for CYP3A inhibition; cited from earlier work

T1 sequence (P08684 whole entry): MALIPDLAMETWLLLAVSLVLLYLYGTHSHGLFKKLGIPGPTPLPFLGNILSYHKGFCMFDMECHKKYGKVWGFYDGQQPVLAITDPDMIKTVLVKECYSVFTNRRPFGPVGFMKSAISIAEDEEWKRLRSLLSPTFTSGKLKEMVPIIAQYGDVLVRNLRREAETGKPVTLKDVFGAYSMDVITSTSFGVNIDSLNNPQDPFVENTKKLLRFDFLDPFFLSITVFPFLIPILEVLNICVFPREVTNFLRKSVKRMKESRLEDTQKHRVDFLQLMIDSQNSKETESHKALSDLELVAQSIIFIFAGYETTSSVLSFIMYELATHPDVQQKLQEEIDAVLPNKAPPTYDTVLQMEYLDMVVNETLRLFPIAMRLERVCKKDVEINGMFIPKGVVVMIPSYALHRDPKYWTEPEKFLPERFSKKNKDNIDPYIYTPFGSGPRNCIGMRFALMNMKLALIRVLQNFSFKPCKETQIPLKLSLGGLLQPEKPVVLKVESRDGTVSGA

Question: Which results are given for `COc1cc2c(cc1Cc1cccc(Cl)c1F)c(=O)c(C(=O)O)cn2[C@H](CO)C(C)C` [EVG, Elvitegravir]?
Answer: CYP3A4 activity (Fig 5 data) (human recombinant CYP3A4; EVG 2.5 uM): 77.957; CYP3A4 activity (Fig 5 data) (human recombinant CYP3A4; EVG 5 uM): 63.9794; CYP3A4 activity (Fig 5 data) (human recombinant CYP3A4; EVG 7.5 uM): 59.992; CYP3A4 activity (Fig 5 data) (human recombinant CYP3A4; EVG 10 uM): 55.6409; CYP3A4 activity (Fig 5 data) (human recombinant CYP3A4; EVG 25 uM): 40.6332; CYP3A4 activity (Fig 5 data) (human recombinant CYP3A4; EVG 50 uM): 32.8987; CYP3A4 activity (Fig 5 data) (human recombinant CYP3A4; EVG 75 uM): 28.0321; CYP3A4 activity (Fig 5 data) (human recombinant CYP3A4; EVG 100 uM): 18.7817; IC50 (human recombinant CYP3A4; EVG with ethanol at 20 mM): 17.5 ± 1.5 µM; IC50 (human recombinant CYP3A4; EtOH 20 mM, COBI at concentration matching EVG unless 0.04 μM stated): 13 µM and 13.1 µM; IC50 (human recombinant CYP3A4; With Ethanol, three values per group): 19 µM and 16.5 µM; increase in the IC50 by ethanol (human recombinant CYP3A4; ethanol at 20 mM compared to EVG alone): 34%; IC50 (CYP3A): 63 µM
